≈ marks a conversion by molar mass, not a printed value. Calls of active or inactive are those of the source. The calls are words filed in the database; no cut-off is given here.
Experiments:
[1] = target: Voltage-gated inwardly rectifying potassium channel KCNH2 (Homo sapiens, UniProt Q12809); experiment: Inhibition of human ERG transfected in CHO cells by patch clamp method
[2] = Cytotoxicity against human HepG2 cells assessed as decrease in cell viability after 40 hrs by Celltiter Glo assay
[3] = Drug uptake in Swiss mouse liver at 30 mg/kg, iv administered as single bolus dose by LC-MS/MS method; format: ADME, organism-based; conditions: in vivo
Escherichia coli [4] = experiment: Antibacterial activity against Escherichia coli ATCC 35218 in Swiss mouse septicemia model assessed as decrease in bacterial burden in blood at 30 mg/kg, iv bid administered at 1 and 3 hrs post infection measured at 4 hrs relative to vehicle-treated control; format: functional
Mus musculus [5] = experiment: Time during which free liver concentration exceeds in vitro MIC for Escherichia coli ATCC 35218 in Swiss mouse at 30 mg/kg, iv administered as single bolus dose by LC-MS/MS method; format: ADME, organism-based; conditions: in vivo
Mus musculus [6] = experiment: Time during which free lung concentration exceeds in vitro MIC for Escherichia coli ATCC 35218 in Swiss mouse at 30 mg/kg, iv administered as single bolus dose by LC-MS/MS method; format: ADME, organism-based; conditions: in vivo
[7] = Drug metabolism in human liver microsomes at 5 uM after 20 mins in presence of NADPH; format: ADME, microsome; conditions: read-out: Drug metabolism
Pseudomonas aeruginosa [8] = experiment: Antibacterial activity against Pseudomonas aeruginosa PAO1 after 20 to 22 hrs; format: functional
Klebsiella pneumoniae [9] = experiment: Antibacterial activity against Klebsiella pneumoniae 1161486 after 20 to 22 hrs; format: functional
[10] = Thermodynamic aqueous solubility of the compound at pH 7.4; conditions: aqueous solution
Escherichia coli [11] = experiment: Antibacterial activity against Escherichia coli ATCC 35218 in Swiss mouse septicemia model assessed as decrease in bacterial burden in blood at 15 mg/kg, iv bid administered at 1 and 3 hrs post infection measured at 4 hrs relative to vehicle-treated control; format: functional
L5178Y [12] = experiment: Genotoxicity in mouse L5178Y cells after 3 hrs in presence of S9 fraction by micronucleus test; format: toxicity, cell-based; conditions: s9, 3 h
Escherichia coli [13] = experiment: Antibacterial activity against hyperpermeable Escherichia coli D22 harboring LpxC mutant after 20 to 22 hrs
[14] = Apparent permeability across human Caco2 cells; conditions: Caco-2
Acinetobacter baumannii [15] = experiment: Antibacterial activity against Acinetobacter baumannii BM4454 after 20 to 22 hrs; format: functional
Escherichia coli [16] = experiment: Antibacterial activity against Escherichia coli ATCC 35218 in Swiss mouse septicemia model assessed as mouse survival at 30 mg/kg, iv bid administered at 1 and 3 hrs post infection measured at 96 hrs relative to vehicle-treated control; format: functional; conditions: ATCC 35218, iv
Escherichia coli [17] = experiment: Antibacterial activity against ESBL producing Escherichia coli ATCC 35218 after 20 to 22 hrs; format: functional
[18] = target: T1, Muscarinic acetylcholine receptor M1 (Homo sapiens) (UniProt P11229); experiment: Inhibition of M1 receptor (unknown origin) at 10 uM relative to control
T1 sequence (whole entry): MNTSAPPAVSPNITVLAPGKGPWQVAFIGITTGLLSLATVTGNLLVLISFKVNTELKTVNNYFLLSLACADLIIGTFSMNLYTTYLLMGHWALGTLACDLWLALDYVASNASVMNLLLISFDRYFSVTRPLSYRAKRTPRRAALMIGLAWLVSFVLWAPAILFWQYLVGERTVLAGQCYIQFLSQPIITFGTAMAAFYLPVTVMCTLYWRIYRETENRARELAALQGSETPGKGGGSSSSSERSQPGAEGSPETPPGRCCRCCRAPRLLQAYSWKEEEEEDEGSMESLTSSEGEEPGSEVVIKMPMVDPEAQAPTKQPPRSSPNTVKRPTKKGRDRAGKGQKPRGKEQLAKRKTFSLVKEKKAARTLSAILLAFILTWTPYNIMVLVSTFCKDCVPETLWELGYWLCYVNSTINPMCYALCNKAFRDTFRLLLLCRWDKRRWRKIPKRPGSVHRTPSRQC

[19] = Half life in Swiss mouse plasma at 30 mg/kg, iv administered as single bolus dose by LC-MS/MS method; format: ADME, organism-based
Staphylococcus aureus [20] = experiment: Antibacterial activity against methicillin-resistant Staphylococcus aureus ATCC 33592 after 20 to 22 hrs; format: functional
[21] = Drug uptake in Swiss mouse kidney at 30 mg/kg, iv administered as single bolus dose by LC-MS/MS method; format: ADME, organism-based; conditions: in vivo
Staphylococcus aureus [22] = experiment: Antibacterial activity against methicillin-resistant Staphylococcus aureus ATCC 33592 after 20 to 22 hrs in presence of 50% calf fetal serum; format: functional, organism-based
[23] = target: Muscarinic acetylcholine receptor M3 (Homo sapiens) (UniProt P20309); experiment: Inhibition of M3 receptor (unknown origin) at 10 uM relative to control
Sequence of Muscarinic acetylcholine receptor M3 (Homo sapiens) (P20309 whole entry, looked up): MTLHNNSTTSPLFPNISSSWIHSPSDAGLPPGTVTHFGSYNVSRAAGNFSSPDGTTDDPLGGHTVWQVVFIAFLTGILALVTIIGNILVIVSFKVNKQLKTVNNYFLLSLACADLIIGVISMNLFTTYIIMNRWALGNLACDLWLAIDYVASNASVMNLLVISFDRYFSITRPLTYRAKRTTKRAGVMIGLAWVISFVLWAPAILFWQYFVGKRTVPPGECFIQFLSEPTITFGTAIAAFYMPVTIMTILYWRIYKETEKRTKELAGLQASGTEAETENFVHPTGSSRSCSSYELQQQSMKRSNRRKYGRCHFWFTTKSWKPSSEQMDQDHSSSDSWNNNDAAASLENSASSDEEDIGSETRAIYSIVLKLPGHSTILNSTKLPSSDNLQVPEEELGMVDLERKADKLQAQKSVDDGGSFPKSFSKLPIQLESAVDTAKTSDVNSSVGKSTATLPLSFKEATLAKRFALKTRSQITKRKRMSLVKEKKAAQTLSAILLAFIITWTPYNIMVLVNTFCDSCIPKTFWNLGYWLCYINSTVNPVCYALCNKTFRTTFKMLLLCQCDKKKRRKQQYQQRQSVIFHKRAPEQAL

Mus musculus [24] = experiment: Toxicity in Swiss mouse at 30 mg/kg, iv bid administered as bolus dose every 2 hrs measured daily for 5 days; format: organism-based; conditions: in vivo, 120 h
[25] = Drug metabolism in rat liver microsomes at 5 uM after 20 mins in presence of NADPH; format: ADME, microsome; conditions: read-out: Drug metabolism
[26] = Metabolic stability in mouse plasma at 1 uM after 4 hrs; format: ADME, cell-free; conditions: read-out: Stability
Escherichia coli [27] = experiment: Antibacterial activity against tolC-deficient Escherichia coli K-12 MG1655 after 20 to 22 hrs; format: functional; conditions: K-12 substr. MG1655
L5178Y [28] = experiment: Genotoxicity in mouse L5178Y cells after 23 hrs in absence of S9 fraction by micronucleus test; format: toxicity, cell-based
Escherichia coli [29] = experiment: Antibacterial activity against Escherichia coli K-12 MG1655 after 20 to 22 hrs; conditions: K-12 substr. MG1655
[30] = AUC (0 to last) in Swiss mouse plasma at 30 mg/kg, iv administered as single bolus dose by LC-MS/MS method; format: ADME, organism-based; design: dose 30 mg/kg, route intravenous, time 0 - last
[31] = Unbound concentration in Swiss mouse plasma at 30 mg/kg, iv administered as single bolus dose measured at 5 mins by LC-MS/MS method; format: ADME, organism-based; conditions: in vivo
Klebsiella pneumoniae [32] = experiment: Antibacterial activity against tolC-deficient Klebsiella pneumoniae 1161486a after 20 to 22 hrs; format: functional
Cytochrome P450 3A4 [33] = target: T2, Cytochrome P450 3A4 (Homo sapiens, UniProt P08684); experiment: Inhibition of CYP3A4-mediated testosterone metabolism in human liver microsomes
T2 sequence (P08684 whole entry): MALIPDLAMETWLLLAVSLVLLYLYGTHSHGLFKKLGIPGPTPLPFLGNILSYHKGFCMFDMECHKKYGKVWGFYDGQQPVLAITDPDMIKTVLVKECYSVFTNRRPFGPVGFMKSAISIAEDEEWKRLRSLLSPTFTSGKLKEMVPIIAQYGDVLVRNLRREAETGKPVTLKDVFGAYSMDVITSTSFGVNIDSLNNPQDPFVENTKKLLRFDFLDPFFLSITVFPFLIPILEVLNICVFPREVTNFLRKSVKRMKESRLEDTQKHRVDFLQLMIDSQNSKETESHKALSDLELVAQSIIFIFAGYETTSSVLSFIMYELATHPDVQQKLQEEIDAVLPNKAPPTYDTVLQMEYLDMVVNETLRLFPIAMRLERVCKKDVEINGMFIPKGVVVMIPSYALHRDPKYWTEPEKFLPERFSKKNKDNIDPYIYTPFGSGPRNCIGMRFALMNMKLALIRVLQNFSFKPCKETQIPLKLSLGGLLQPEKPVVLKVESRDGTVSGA

Acinetobacter baumannii [34] = experiment: Antibacterial activity against Acinetobacter baumannii BM4652 harboring adeABC/adeIJK deletion mutant after 20 to 22 hrs; format: functional
Mus musculus [35] = experiment: Time during which free kidney concentration exceeds in vitro MIC for Escherichia coli ATCC 35218 in Swiss mouse at 30 mg/kg, iv administered as single bolus dose by LC-MS/MS method; format: ADME, organism-based; conditions: in vivo
Pseudomonas aeruginosa [36] = experiment: Antibacterial activity against Pseudomonas aeruginosa PAO750 harboring mexAB-oprM/mexCD-oprJ/mexEF-oprN/mexXY/opmH/mexJK/pscC deletion mutant after 20 to 22 hrs; format: functional
[37] = Drug metabolism in mouse liver microsomes at 5 uM after 20 mins in presence of NADPH; format: ADME, microsome; conditions: read-out: Drug metabolism
Escherichia coli [38] = experiment: Antibacterial activity against Escherichia coli ATCC 35218 in Swiss mouse septicemia model assessed as mouse survival at 15 mg/kg, iv bid administered at 1 and 3 hrs post infection measured at 96 hrs relative to vehicle-treated control; format: functional; conditions: ATCC 35218, iv
[39] = Drug uptake in Swiss mouse lung at 30 mg/kg, iv administered as single bolus dose by LC-MS/MS method; format: ADME, organism-based; conditions: in vivo
Cytochrome P450 3A4 [40] = target: T2, Cytochrome P450 3A4; experiment: Inhibition of CYP3A4-mediated midazolam metabolism in human liver microsomes
[41] = Protein binding in mouse plasma by equilibrium dialysis method; format: ADME, cell-free; conditions: read-out: PPB (converted)
[42] = Metabolic stability in rat plasma at 1 uM after 4 hrs; format: ADME, cell-free; conditions: read-out: Stability
Staphylococcus aureus [43] = experiment: Antibacterial activity against methicillin-resistant Staphylococcus aureus ATCC 33592 after 20 to 22 hrs in presence of 50% mouse serum; format: functional, organism-based

Sequence of Voltage-gated inwardly rectifying potassium channel KCNH2 (Q12809 whole entry): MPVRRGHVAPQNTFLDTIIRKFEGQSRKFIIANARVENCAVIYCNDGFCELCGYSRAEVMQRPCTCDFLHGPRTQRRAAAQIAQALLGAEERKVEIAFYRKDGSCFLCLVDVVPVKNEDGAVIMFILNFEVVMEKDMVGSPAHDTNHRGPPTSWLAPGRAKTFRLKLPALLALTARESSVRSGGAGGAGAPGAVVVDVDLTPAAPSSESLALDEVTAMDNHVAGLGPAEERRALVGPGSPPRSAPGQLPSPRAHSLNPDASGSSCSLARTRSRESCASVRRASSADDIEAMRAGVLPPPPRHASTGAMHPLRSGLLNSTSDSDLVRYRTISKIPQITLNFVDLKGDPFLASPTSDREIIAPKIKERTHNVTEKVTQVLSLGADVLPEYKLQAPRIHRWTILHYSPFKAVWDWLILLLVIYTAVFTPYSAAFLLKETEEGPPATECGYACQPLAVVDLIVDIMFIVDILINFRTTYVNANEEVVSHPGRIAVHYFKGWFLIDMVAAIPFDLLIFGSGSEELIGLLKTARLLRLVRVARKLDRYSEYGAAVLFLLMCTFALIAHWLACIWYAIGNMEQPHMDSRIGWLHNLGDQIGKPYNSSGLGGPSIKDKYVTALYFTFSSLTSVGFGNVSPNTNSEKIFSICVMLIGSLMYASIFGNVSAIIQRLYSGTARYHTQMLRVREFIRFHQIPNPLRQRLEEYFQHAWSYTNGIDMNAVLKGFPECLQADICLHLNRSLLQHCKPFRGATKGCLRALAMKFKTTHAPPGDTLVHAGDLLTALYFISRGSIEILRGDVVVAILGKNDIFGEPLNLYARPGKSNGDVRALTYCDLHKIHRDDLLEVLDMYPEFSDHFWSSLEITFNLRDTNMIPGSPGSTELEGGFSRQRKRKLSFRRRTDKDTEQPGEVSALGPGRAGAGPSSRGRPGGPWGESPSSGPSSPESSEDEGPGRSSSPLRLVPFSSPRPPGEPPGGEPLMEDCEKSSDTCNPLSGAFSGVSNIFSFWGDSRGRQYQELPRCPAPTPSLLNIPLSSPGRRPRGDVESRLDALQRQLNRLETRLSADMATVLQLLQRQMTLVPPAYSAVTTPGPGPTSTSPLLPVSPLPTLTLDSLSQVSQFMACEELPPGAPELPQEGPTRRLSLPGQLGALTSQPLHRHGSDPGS

For N[C@H]1CCN(c2cc3c(cc2F)n2ncnc2c(=O)n3C2CC2)C1, the IC50 [1] was over 30 µM, the CC50 at 40 h [2] was over 30 µM and the Drug uptake [3] was “Active”. It also gave an Activity (Escherichia coli [4]) of 3.2 deltalog10CFU/ml, a Time (Mus musculus [5]) of 2 h and a Time (Mus musculus [6]) of 2 h. The metabolised at 20 min, 5 µM [7] was 0%, the MIC (Pseudomonas aeruginosa [8]) was over 64 µg/mL and the MIC (Klebsiella pneumoniae [9]) was 32 µg/mL (≈ 97.5 µM). For the same molecule, the solubility thermodynamic [10] was 926 µg/mL (≈ 2820 µM), the Activity (Escherichia coli [11]) was 1.6 deltalog10CFU/ml and the Activity (L5178Y [12]) was “Toxic”. For the same molecule, the MIC (Escherichia coli [13]) was 1 µg/mL (≈ 3.05 µM), the Papp [14] was 3.2 ×10⁻⁶ cm/s and the MIC (Acinetobacter baumannii [15]) was over 64 µg/mL. For the same molecule, the survival at 30 mg/kg (Escherichia coli [16]) was 30%, the MIC (Escherichia coli [17]) was 2 µg/mL (≈ 6.09 µM) and the inhibition [18] was 50 to 60%. For the same molecule, the half-life [19] was 1 h, the MIC (Staphylococcus aureus [20]) was 4 µg/mL (≈ 12.2 µM) and the Drug uptake [21] was “Active”. For the same molecule, the Activity (Staphylococcus aureus [22]) was “Active”, the inhibition [23] was 50 to 60% and the Activity (Mus musculus [24]) was “Non-Toxic”. For the same molecule, the metabolised at 20 min, 5 µM [25] was 8%, the remaining at 4 h, 1 µM [26] was 80 to 120% and the MIC (Escherichia coli [27]) was under 0.125 µg/mL. For the same molecule, the Activity (L5178Y [28]) was “Toxic”, the MIC (Escherichia coli [29]) was 4 µg/mL (≈ 12.2 µM) and the AUC(0-t) [30] was 7200 ng·h/mL. For the same molecule, the “Cp(f)” value [31] was 2500 ng/mL, the MIC (Klebsiella pneumoniae [32]) was 0.5 µg/mL (≈ 1.52 µM) and the IC50 (Cytochrome P450 3A4 [33]) was over 30 µM. It also gave an MIC (Acinetobacter baumannii [34]) of 4 µg/mL (≈ 12.2 µM), a Time (Mus musculus [35]) of 2 h and an MIC (Pseudomonas aeruginosa [36]) of 1 µg/mL (≈ 3.05 µM). For the same molecule, the metabolised at 20 min, 5 µM [37] was 8%, the survival at 15 mg/kg (Escherichia coli [38]) was 0% and the Drug uptake [39] was “Active”. It also gave an IC50 (Cytochrome P450 3A4 [40]) of over 30 µM, a fraction unbound [41] of 0.38 and a remaining at 4 h, 1 µM [42] of 80 to 120%. For the same molecule, the Activity (Staphylococcus aureus [43]) was “Active”.

— ChEMBL document CHEMBL4177750, “Imidazopyrazinones (IPYs): Non-Quinolone Bacterial Topoisomerase Inhibitors Showing Partial Cross-Resistance with Quinolones” (J Med Chem, 2018)
